The values below come from PubChem BioAssay (NCI).

Test systems include UACC-257 melanoma; OVCAR-8 ovarian; MDA-N; K-562 leukemia; CAKI-1 renal; EKVX NSCLC; NCI-H522 lung; CCRF-CEM leukemia; LOX IMVI melanoma; HCT-15 colon.
Holding throughout (assay): NCI tumour cell line growth inhibition, 48 h

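Dose response: 5 concentrations. Exposure: 48 h. Format: 96-well plates. Endpoint: linear interpolation; highest concentration if not reached. At the TGI there is no net growth.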 Some results are limits rather than exact numbers.

Regarding `COc1cc(O)c2c(=O)c(O)c(-c3ccc(O)c(O)c3)oc2c1`, the TGI is 46.1 µM in the assay with UACC-257 melanoma; 75.9 µM in the assay with OVCAR-8 ovarian; greater than 100 µM with MDA-N; greater than 100 µM with K-562 leukemia; 15.6 µM in the assay on CAKI-1 renal; greater than 100 µM in the assay with EKVX NSCLC. For the same compound, the TGI was 25.5 µM in the assay on NCI-H522 lung, 33 µM in the assay on CCRF-CEM leukemia, 31.9 µM in the assay on LOX IMVI melanoma and greater than 100 µM with HCT-15 colon.
In the case of `O=C1Cc2c(-c3ccccc3)cc(-c3ccc(Cl)cc3)nc2-c2ccccc2N1`, the TGI in the assay with UACC-257 melanoma is greater than 58.2 µM; with OVCAR-8 ovarian it was 9.09 µM; with MDA-N it was 35.4 µM; in the assay on K-562 leukemia it was greater than 100 µM; in the assay with CAKI-1 renal, 16.2 µM; with EKVX NSCLC, greater than 43.6 µM. Moreover, the TGI is 12.8 µM in the assay with NCI-H522 lung, greater than 53.4 µM in the assay on CCRF-CEM leukemia, 21.9 µM in the assay with LOX IMVI melanoma and greater than 55 µM with HCT-15 colon.
In the case of `CC(=O)OC/C=C/Cn1nc(Br)c(=O)[nH]c1=O`, the TGI in the assay with UACC-257 melanoma, in the assay with OVCAR-8 ovarian, with MDA-N, in the assay on K-562 leukemia, with CAKI-1 renal and with EKVX NSCLC was greater than 100 µM each time. Moreover, the TGI in the assay with NCI-H522 lung, with CCRF-CEM leukemia, with LOX IMVI melanoma and in the assay with HCT-15 colon was greater than 100 µM throughout.
`O=C(CCc1ccccc1)NCCc1ccc(O)c(O)c1`: the TGI in the assay on UACC-257 melanoma was greater than 100 µM; with OVCAR-8 ovarian, greater than 85.6 µM; with MDA-N, 28.5 µM; in the assay on K-562 leukemia, 22.4 µM; in the assay with CAKI-1 renal, 29.4 µM; in the assay with EKVX NSCLC it was greater than 100 µM. In addition, the TGI is 44 µM in the assay with NCI-H522 lung, 27.1 µM with CCRF-CEM leukemia, greater than 100 µM with LOX IMVI melanoma and greater than 100 µM in the assay on HCT-15 colon.
For the compound `CC(=O)OC1C(C)OC(OC2C[C@](O)(C(C)=O)Cc3c(O)c4c(c(O)c32)C(=O)c2ccccc2C4=O)C(F)C1OC(C)=O` (some centres undefined), the TGI in the assay with UACC-257 melanoma is 9.02 µM; in the assay with OVCAR-8 ovarian, 10.7 µM; with MDA-N, greater than 100 µM; in the assay on K-562 leukemia, greater than 100 µM; in the assay with CAKI-1 renal, 1.39 µM; with EKVX NSCLC, 99.2 µM. Also, the TGI in the assay with NCI-H522 lung stood at 4.29 µM; with CCRF-CEM leukemia it was 1.51 µM; in the assay on LOX IMVI melanoma, 3.65 µM; with HCT-15 colon, 6.34 µM.
Regarding `COc1c(-c2nc3nc(N4CCN(C)CC4)ccc3[nH]2)cc(OC)c2c1nc(CCl)n2C`, the TGI is 78.3 µM in the assay with UACC-257 melanoma; 50.5 µM with OVCAR-8 ovarian; greater than 100 µM in the assay with MDA-N; greater than 100 µM in the assay on K-562 leukemia; 33.2 µM in the assay with CAKI-1 renal; 39.2 µM with EKVX NSCLC. The TGI with NCI-H522 lung is 25.5 µM; in the assay on CCRF-CEM leukemia, 62.1 µM; with LOX IMVI melanoma it was 24 µM; in the assay on HCT-15 colon, 90.6 µM.
Take `COc1cc(CC2C(=O)OCC2Cc2ccc(OC)c(OC)c2)ccc1O` (centres undefined): the TGI in the assay on UACC-257 melanoma, in the assay on OVCAR-8 ovarian, in the assay with MDA-N, with K-562 leukemia, in the assay on CAKI-1 renal and in the assay with EKVX NSCLC was greater than 100 µM in each case. The TGI in the assay on NCI-H522 lung, with CCRF-CEM leukemia, in the assay on LOX IMVI melanoma and in the assay with HCT-15 colon was greater than 100 µM each time.
Regarding `C[C@@H](c1ccccc1)N(CC#N)[C@H]1CCC[C@]1(O)/C=C/c1ccc2c(c1)OCO2`, the TGI with UACC-257 melanoma, with OVCAR-8 ovarian, in the assay with MDA-N, in the assay on K-562 leukemia, in the assay on CAKI-1 renal and with EKVX NSCLC was greater than 25 µM in each case. Besides, the TGI in the assay on NCI-H522 lung, with CCRF-CEM leukemia, in the assay on LOX IMVI melanoma and with HCT-15 colon was greater than 25 µM each time.
In the case of `O=C(Cn1c(-c2ccccc2)cc2ccccc21)N1CCOCC1`, the TGI in the assay on UACC-257 melanoma, in the assay on OVCAR-8 ovarian, with MDA-N, with K-562 leukemia, in the assay on CAKI-1 renal and in the assay on EKVX NSCLC was greater than 100 µM throughout. Further, the TGI in the assay with NCI-H522 lung, in the assay with CCRF-CEM leukemia, in the assay with LOX IMVI melanoma and with HCT-15 colon was greater than 100 µM in each case.
Take `COc1ccc(-c2cc(=O)c3cc(OC)c(OC)cc3[nH]2)cc1OC`: the TGI with UACC-257 melanoma, in the assay on OVCAR-8 ovarian, in the assay with MDA-N, in the assay with K-562 leukemia, in the assay on CAKI-1 renal and in the assay on EKVX NSCLC was greater than 100 µM throughout. The TGI in the assay with NCI-H522 lung, in the assay on CCRF-CEM leukemia, in the assay on LOX IMVI melanoma and in the assay on HCT-15 colon was greater than 100 µM throughout.
With `O=C(c1ccccc1)n1c2ccc(Br)cc2c2nc3ccccc3nc21`, the TGI in the assay with UACC-257 melanoma, in the assay with OVCAR-8 ovarian, in the assay on MDA-N, with K-562 leukemia, in the assay on CAKI-1 renal and with EKVX NSCLC was greater than 100 µM each time. Besides, the TGI with NCI-H522 lung, in the assay with CCRF-CEM leukemia, in the assay on LOX IMVI melanoma and with HCT-15 colon was greater than 100 µM throughout.
For `CC(=O)Oc1c(OC(C)C)cc(=O)n2ccsc12`, the TGI in the assay on UACC-257 melanoma, in the assay with OVCAR-8 ovarian, in the assay on MDA-N, in the assay on K-562 leukemia, in the assay on CAKI-1 renal and in the assay on EKVX NSCLC was greater than 100 µM throughout. The TGI in the assay with NCI-H522 lung is greater than 100 µM; with CCRF-CEM leukemia, 70.4 µM; in the assay on LOX IMVI melanoma, greater than 100 µM; in the assay on HCT-15 colon, greater than 100 µM.
In the case of `CO[C@@H](c1ccccc1)[C@H](O)[C@@](O)(c1ccccc1)P(=O)(OC)OC`, the TGI in the assay on UACC-257 melanoma, in the assay with OVCAR-8 ovarian, in the assay with MDA-N, with K-562 leukemia, in the assay with CAKI-1 renal and in the assay on EKVX NSCLC was greater than 100 µM throughout. Further, the TGI in the assay with NCI-H522 lung, in the assay with CCRF-CEM leukemia, in the assay on LOX IMVI melanoma and in the assay on HCT-15 colon was greater than 100 µM throughout.
`O=CC12CCCN1CCC2`: the TGI with UACC-257 melanoma, in the assay with MDA-N, in the assay on K-562 leukemia, with CAKI-1 renal, with EKVX NSCLC and with NCI-H522 lung was greater than 100 µM in each case. Besides, the TGI in the assay on CCRF-CEM leukemia, in the assay on LOX IMVI melanoma and in the assay with HCT-15 colon was greater than 100 µM throughout.
